Assay results as given in paper PMC10677270, “2554. What’s Weight Got to Do with It? Prospective Pharmacokinetic/Pharmacodynamic Evaluation of Fixed-Dose Daptomycin” (Open Forum Infectious Diseases, 2023).

Test: Steady-state pharmacokinetic/pharmacodynamic evaluation of fixed-dose (750 mg) daptomycin in patients with Staphylococcus aureus infections
Description: This study evaluated systemic exposure of a fixed dose (750 mg) of DAP in patients with Staphylococcus aureus infections. Methods Adult non-ICU patients with CrCl ≥ 30 mL/min admitted to our academic medical center warranting DAP for a S. aureus infection were eligible for enrollment. DAP 750 mg was infused over 30 minutes every 24 hours. At steady state, concentrations were obtained pre-dose (0.5 hours) and 1, 12, and 24 hours after the start of infusion. Concentrations were measured using a validated LC-MS assay. Pharmacokinetic (PK) analysis was performed using first-order equations and stratified by weight: low (< 65 kg), normal (65-85 kg), and high ( > 85 kg). Therapeutic AUC24 (≥ 666 mg*hr/L) and elevated trough (Cmin > 24.3 mg/L) were the efficacy and safety targets, respectively.

CCCCCCCCCC(=O)N[C@@H](Cc1c[nH]c2ccccc12)C(=O)N[C@H](CC(N)=O)C(=O)N[C@@H](CC(=O)O)C(=O)N[C@@H]1C(=O)NCC(=O)N[C@@H](CCCN)C(=O)N[C@@H](CC(=O)O)C(=O)N[C@H](C)C(=O)N[C@@H](CC(=O)O)C(=O)NCC(=O)N[C@H](CO)C(=O)N[C@@H]([C@H](C)CC(=O)O)C(=O)N[C@@H](CC(=O)c2ccccc2N)C(=O)O[C@@H]1C [DAP, daptomycin]
Ke (all patients n=22, DAP 750 mg infused over 30 min every 24 h, LC-MS, first-order equations, median, IQR [0.046, 0.098]): 0.078 h⁻¹
Cmin (all patients n=22, DAP 750 mg infused over 30 min every 24 h, LC-MS, median, IQR [7.3, 29.9]): 10500 ng/mL
Therapeutic AUC24 (>= 666 mg*hr/L) achieved, share of patients (all patients, 14/22, DAP 750 mg every 24 h, efficacy target): 64%
Therapeutic AUC24 (>= 666 mg*hr/L) achieved, share of patients (females n=12, DAP 750 mg every 24 h): 83%
Therapeutic AUC24 (>= 666 mg*hr/L) achieved, share of patients (males n=10, DAP 750 mg every 24 h): 40%
